Source: PubChem BioAssay AID1259407 (Chemical Carcinogenesis Research Information System (CCRIS), 2018)
Activity calls are given as the source filed them. How the calls were made is not given here.

System: CCRIS mutagenicity, Ames/micronucleus/aberration tests
Experiment: CCRIS mutagenicity studies
[1] = Test System: AMES SALMONELLA TYPHIMURIUM, Strain/Indicator: TA98, Metabolic Activation: NONE, Method: PREINCUBATION
[2] = Test System: AMES SALMONELLA TYPHIMURIUM, Strain/Indicator: TA100, Metabolic Activation: NONE, Method: PREINCUBATION
[3] = Test System: AMES SALMONELLA TYPHIMURIUM, Strain/Indicator: TA1535, Metabolic Activation: NONE, Method: PREINCUBATION
[4] = Test System: AMES SALMONELLA TYPHIMURIUM, Strain/Indicator: TA1537, Metabolic Activation: NONE, Method: PREINCUBATION

Measured: mutagenic call

CC(C)=CCC/C(C)=C/C=O
inactive: Test System: AMES SALMONELLA TYPHIMURIUM, Strain/Indicator: TA97A, Metabolic Activation: NONE, Method: STANDARD PLATE inactive; negative | Test System: AMES SALMONELLA TYPHIMURIUM, Strain/Indicator: TA97A, Metabolic Activation: RAT LIVER S-9, AROCLOR 1254, Method: STANDARD PLATE inactive; negative | Test System: AMES SALMONELLA TYPHIMURIUM, Strain/Indicator: TA98, Metabolic Activation: HAMSTER, LIVER, S-9, AROCLOR 1254 (10%), Method: PREINCUBATION inactive; negative | [1] inactive; negative | Test System: AMES SALMONELLA TYPHIMURIUM, Strain/Indicator: TA98, Metabolic Activation: NONE, Method: STANDARD PLATE inactive; negative | Test System: AMES SALMONELLA TYPHIMURIUM, Strain/Indicator: TA98, Metabolic Activation: RAT LIVER S-9, AROCLOR 1254, Method: STANDARD PLATE inactive; negative | Test System: AMES SALMONELLA TYPHIMURIUM, Strain/Indicator: TA98, Metabolic Activation: RAT, LIVER, S-9, AROCLOR 1254 (10%), Method: PREINCUBATION inactive; negative | Test System: AMES SALMONELLA TYPHIMURIUM, Strain/Indicator: TA100, Metabolic Activation: HAMSTER, LIVER, S-9, AROCLOR 1254 (10%), Method: PREINCUBATION inactive; negative | [2] inactive; negative | Test System: AMES SALMONELLA TYPHIMURIUM, Strain/Indicator: TA100, Metabolic Activation: NONE, Method: STANDARD PLATE inactive; negative | Test System: AMES SALMONELLA TYPHIMURIUM, Strain/Indicator: TA100, Metabolic Activation: RAT LIVER S-9, AROCLOR 1254, Method: STANDARD PLATE inactive; negative | Test System: AMES SALMONELLA TYPHIMURIUM, Strain/Indicator: TA100, Metabolic Activation: RAT, LIVER, S-9, AROCLOR 1254 (10%), Method: PREINCUBATION inactive; negative | Test System: AMES SALMONELLA TYPHIMURIUM, Strain/Indicator: TA102, Metabolic Activation: NONE, Method: STANDARD PLATE inactive; negative | Test System: AMES SALMONELLA TYPHIMURIUM, Strain/Indicator: TA102, Metabolic Activation: RAT LIVER S-9, AROCLOR 1254, Method: STANDARD PLATE inactive; negative | Test System: AMES SALMONELLA TYPHIMURIUM, Strain/Indicator: TA1535, Metabolic Activation: HAMSTER, LIVER, S-9, AROCLOR 1254 (10%), Method: PREINCUBATION inactive; negative | [3] inactive; negative | Test System: AMES SALMONELLA TYPHIMURIUM, Strain/Indicator: TA1535, Metabolic Activation: RAT, LIVER, S-9, AROCLOR 1254 (10%), Method: PREINCUBATION inactive; negative | Test System: AMES SALMONELLA TYPHIMURIUM, Strain/Indicator: TA1537, Metabolic Activation: HAMSTER, LIVER, S-9, AROCLOR 1254 (10%), Method: PREINCUBATION inactive; negative | [4] inactive; negative | Test System: AMES SALMONELLA TYPHIMURIUM, Strain/Indicator: TA1537, Metabolic Activation: RAT, LIVER, S-9, AROCLOR 1254 (10%), Method: PREINCUBATION inactive; negative

CNC(=O)C[C@@H](N)C(=O)N[C@@H](C(=O)N[C@@H]1C(=O)N2[C@@H]1SC(C)(C)[C@@H]2C(=O)O)c1ccc(O)cc1
inactive: [1] inactive; negative | Test System: AMES SALMONELLA TYPHIMURIUM, Strain/Indicator: TA98, Metabolic Activation: RAT, LIVER, S-9, PHENOBARBITAL AND BENZOFLAVONE, Method: PREINCUBATION inactive; negative | [2] inactive; negative | Test System: AMES SALMONELLA TYPHIMURIUM, Strain/Indicator: TA100, Metabolic Activation: RAT, LIVER, S-9, PHENOBARBITAL AND BENZOFLAVONE, Method: PREINCUBATION inactive; negative | [3] inactive; negative | Test System: AMES SALMONELLA TYPHIMURIUM, Strain/Indicator: TA1535, Metabolic Activation: RAT, LIVER, S-9, PHENOBARBITAL AND 5,6 BENZOFLAVONE, Method: PREINCUBATION inactive; negative | [4] inactive; negative | Test System: AMES SALMONELLA TYPHIMURIUM, Strain/Indicator: TA1537, Metabolic Activation: RAT, LIVER, S-9, PHENOBARBITAL AND 5,6 BENZOFLAVONE, Method: PREINCUBATION inactive; negative | Test System: AMES SALMONELLA TYPHIMURIUM, Strain/Indicator: TA1538, Metabolic Activation: NONE, Method: PREINCUBATION inactive; negative | Test System: AMES SALMONELLA TYPHIMURIUM, Strain/Indicator: TA1538, Metabolic Activation: RAT, LIVER, S-9, PHENOBARBITAL AND 5,6 BENZOFLAVONE, Method: PREINCUBATION inactive; negative | Test System: E. COLI, Strain/Indicator: WP2 UVRA, Metabolic Activation: NONE, Method: PREINCUBATION inactive; negative | Test System: E. COLI, Strain/Indicator: WP2 UVRA, Metabolic Activation: RAT, LIVER, S-9, PHENOBARBITAL AND 5,6 BENZOFLAVONE, Method: PREINCUBATION inactive; negative
